Results published in US12121521B2, “Uses of salt-inducible kinase (SIK) inhibitors for treating osteoporosis” (The General Hospital Corporation, priority 2016, dated 2024).

Tests used:
[1] = in vivo; cited from earlier work
Ocy454 cells [2] = test: Immunoblotting of Ocy454 cell lysates (HDAC4/5, CRTC2, SIK2 phosphorylation and localisation); assay type: cell-based, mouse
[3] = In vivo toxicity experiments (weight, CBC, serum chemistry); parameters: species or system mouse
Source text: Blood was obtained for the complete blood count (CBC) measurement, and serum was obtained for the glucose, blood urea nitrogen (BUN), cholesterol, triglycerides, ALT, Creatine kinase (CK), amylase, and total protein measurements. […] “WBC” refers to “white blood cell”. “Hgb” refers to “hemoglobin”. “Pit” refers to “platelet”.

Ocy454 cells [4] = test: Gene expression in Ocy454 cells by RT-qPCR; assay type: cell-based, mouse
tyrosine kinase Src = tyrosine kinase Src (Homo sapiens, UniProt P12931); settings: cited from earlier work
[5] = test system: M-CSF+RANKL-primed osteoclastogenesis; test: Osteoclast differentiation of bone marrow-derived macrophages (TRAP); assay type: cell-based, murine; settings: in vitro; read-out: IC50 of inhibition of M-CSF+RANKL-primed osteoclastogenesis
Description: Static and dynamic histomorphometry was performed (see FIG. 24). […] Effects on osteoclast differentiation were assessed by TRAP secretion assays and counting multi-nucleated TRAP-positive cells (see FIG. 26). M-CSF signaling in primary macrophages, was assessed by immunoblotting for MCSF-receptor Y723 phosphorylation and ERK1/2 phosphorylation (see FIG. 27).

Ocy454 cells [6] = test: Gene expression in Ocy454 cells by RT-qPCR; assay type: cell-based, mouse; settings: 0.5 μM, 3.5 hours; FIG. 21
Description: In FIG. 21, Ocy454 cells (osteocyte cell line, also known at 6-9 cells) were cultured at 37° C. for 2 weeks to permit osteocyte differentiation. The cells were then treated with the indicated compound (0.5 μM) for 3.5 hours, and gene expression was analyzed by RT-qPCR. SOST expression was reduced by the indicated compounds. RANKL expression was increased by the indicated compounds. […] Therefore, these changes in gene expression may be due to on-target effects of the indicated compound.
For all experiments, a single cell subclone of Ocy454 cells (17, 18) was used. Cells were passages in alpha-MEM supplemented with 10% heat-inactivated fetal bovine serum and 1% antibiotics (penicillin/streptomycin, Fungizone) at 33° C. with 5% CO2. Cells were plated at 50,000 cells/ml and allowed to reach confluency at 33° C. (typically in 2-3 days). At this point, cells were transferred to 37° C. for subsequent analysis. For immunoblotting, cells were always analyzed after culture at 37° C. for 7 days. For gene expression analysis, cells were analyzed after culture at 37° C. for 14 days. Mycoplasma contamination was ruled out by PCR. Cells were routinely assayed for SOST expression at 37° C. and examined for osteocytic morphology.
Total RNA was extracted from cultured cells using RNeasy (Qiagen, Venlo, Netherlands) following the manufacturer's instructions. For long bone RNA isolation, mice were sacrificed and both femurs were rapidly dissected on ice. Soft tissue was removed and epiphyses cut. Bone marrow cells were then removed by serial flushing with ice-cold PBS. TRIzol (Life Technologies) was added and sampled were frozen at −80C and then homogenized. RNA was then extracted per the manufacturer's instructions, and further purified on RNeasy microcolumns prior to cDNA synthesis. RNA with A260/280 ratio <1.7 was not used for downstream analysis. For cDNA synthesis, 1 μg RNA was used in synthesis reactions according to the instructions of the manufacturer (Primescript RT, Takara). SYBR Green-based qPCR detection was performed using FastStart Universal SYBR Green (Roche, Basel, Switzerland) on a StepOne Plus (Applied Biosystems, Carlsbad, CA) thermocycler.

Ocy454 cells [7] = test: RNA-seq of treated Ocy454 cells; assay type: cell-based, mouse
Description: The ability of YKL-05-093 to mimic the effects of PTH with respect to SOST and RANKL gene regulation supports the hypothesis that the actions of YKL-05-093 might mimic the effects of PTH on many genes. Therefore, RNA-seq was perfumed on Ocy454 cells treated for four hours with vehicle, PTH (1 nM), or YKL-05-093 (0.5 μM) to determine the overlap in global gene regulation by these two agents. […] Of the 446 PTH-regulated genes, 142 (32%) were co-regulated in the same direction by YKL-05-093 (FIGS. 6A and 6B and Table 3 for differentially expressed genes, and Table 4 for all RNA-seq data). This significant overlap was not due to random chance (FIGS. 15A and 15B). Gene ontology analysis for the genes regulated by both PTH and YKL-05-093 is shown in FIGS. 15C and 15D: many of the co-regulated genes fit into categories of interest such as “ossification” and “mesenchyme development”,
Total RNA was subjected to rRNA depletion using RiboZero kit (Illumina) followed by NGS library construction using NEBNext Ultra Directional RNA Library Prep Kit for Illumina (New England Biolabs). Experimental duplicates were performed for each condition. Sequencing was performed on Illumina HiSeq 2500 instrument, resulting in an average of 33 million pairs of 50 bp reads per sample. Sequencing reads were mapped to the mouse reference genome (mm10/GRCm38) using STAR (bioinformatics.oxfordjournals.org/content/early/2012/10/25/bioinformatics.bts635). Gene expression counts were calculated using HTSeq v.0.6.0 (www.huber.embl.de/users/anders/HITSeq/doc/overview.html) based on a current Ensembl annotation file for mm10/GRCm38 (release 75). Differential expression analysis was performed using EgdeR package based on the criteria of >2-fold change in expression value versus control and false discovery rates (FDR)<0.05. Venn diagrams from gene set analysis were generated using genes with >1.5 fold change in expression values and FDR <0.05. Significance testing for gene set overlap was performed according to a standard hypergeometric distribution, p-values <2.2*10^−16. The accession number for the RNA-seq dataset reporter in this paper is GEO: GSE76932 (www.ncbi.nlm.nih.gov/geo/query/acc.cgi?acc=GSE76932).

[8] = 1 μM, 4 hours, control vs shSIK2/3 cells, FIG. 8B
[9] = control vs SIK2/3 deficient cells, 0.5 μM, 4 hours

tyrosine kinase Src, sequence (P12931 whole entry): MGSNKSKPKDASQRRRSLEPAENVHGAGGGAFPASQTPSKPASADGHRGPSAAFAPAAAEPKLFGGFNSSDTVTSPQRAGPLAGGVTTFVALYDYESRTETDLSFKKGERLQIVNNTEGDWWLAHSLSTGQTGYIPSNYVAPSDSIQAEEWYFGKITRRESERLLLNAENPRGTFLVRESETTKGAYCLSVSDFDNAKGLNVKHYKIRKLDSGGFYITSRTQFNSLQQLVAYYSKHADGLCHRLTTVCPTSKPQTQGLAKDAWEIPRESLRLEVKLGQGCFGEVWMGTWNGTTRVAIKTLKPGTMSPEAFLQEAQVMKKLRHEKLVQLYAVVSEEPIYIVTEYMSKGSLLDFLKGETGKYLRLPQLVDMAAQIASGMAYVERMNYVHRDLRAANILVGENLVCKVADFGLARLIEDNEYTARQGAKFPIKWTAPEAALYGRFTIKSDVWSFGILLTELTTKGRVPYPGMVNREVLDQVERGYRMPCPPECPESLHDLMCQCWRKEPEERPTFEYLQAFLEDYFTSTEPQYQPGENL

In the case of `COc1ccc(N2C(=O)N(c3c(C)cccc3Cl)Cc3cnc(Nc4ccc(C5CCN(C)CC5)cc4OC)nc32)nc1` [YKL-05-099], the tolerability [1] is given as “well-tolerated”, the “HDAC4 S246 phosphorylation” value (Ocy454 cells [2]; indicated doses, 20 minutes, FIG. 8A) is given as “dose-dependent reduction in HDAC4 S246 phosphorylation” and the “growth or peripheral blood counts” value ([3]; 4 week treatment) is given as “Neither PTH nor YKL-05-099 altered growth or peripheral blood counts”. For the same compound, the weight gain ([3]; 4 week treatment (weeks 20-24)) was “normal weight gain”, the “toxicity judged from hematology data” value ([3]; 4 week treatment, FIGS. 36A to 36D) was “not toxic under the test conditions” and the RANKL expression (Ocy454 cells [4]; [8]) was “RANKL up-regulation in a SIK2/3-dependent manner”. For the same compound, the SOST expression (Ocy454 cells [4]; [8]) was “SOST down-regulation”, the “inhibition of the tyrosine kinase Src” value (tyrosine kinase Src) was “known to inhibit the tyrosine kinase Src” and the IC50 [5] was 52 nM.
For `COc1ccc(N2C(=O)N(c3c(C)cccc3C)Cc3cnc(Nc4ccc(C5CCN(C)CC5)c(OC)c4)nc32)c(OC)c1` [YKL-05-093], the “SIK2 S358 phosphorylation” value (Ocy454 cells [2]; control and Gsα-deficient Ocy454 cells, 10 μM, 30 minutes) was “did not increase SIK2 S358 phosphorylation”, the “HDAC4 S246 phosphorylation” value (Ocy454 cells [2]; osteocytes lacking SIK2 and SIK3, 10 μM for 45 minutes) was “did not decrease HDAC4 S246 phosphorylation” and the RANKL expression (Ocy454 cells [6]) was “most active in these experiments at reducing SOST and increasing RANKL”. For the same compound, the SOST expression (Ocy454 cells [6]) was “most active in these experiments at reducing SOST”, the “genes down-regulated by both PTH and YKL-05-093” value (Ocy454 cells [7]) was 45 genes and the “genes down-regulated by the agent alone” value (Ocy454 cells [7]) was 59 genes. The “genes up-regulated by both PTH and YKL-05-093” value (Ocy454 cells [7]) was 97 genes, the “genes up-regulated by the agent alone” value (Ocy454 cells [7]) was 56 genes and the RANKL expression (Ocy454 cells [4]; FIG. 5E) was “RANKL up-regulation”. For the same compound, the SOST expression (Ocy454 cells [4]; FIG. 5E) was “rapid and potent SOST suppression”, the RANKL expression (Ocy454 cells [4]; Gsα-deficient Ocy454, 0.5 μM) was “RANKL up-regulation with effects similar to forskolin” and the SOST expression (Ocy454 cells [4]; Gsα-deficient Ocy454, 0.5 μM) was “SOST suppression”. For the same compound, the “stimulation of RANKL expression” value (Ocy454 cells [4]; cells lacking CRTC2, PTH 1 nM or YKL-05-093 0.5 μM, 4 hours) was “abrogated”, the “genes measured with SIK2/3-dependent regulation” value (Ocy454 cells [4]; [9]) was 13/19 and the “genes measured with regulation independent of the presence of SIK2/3” value (Ocy454 cells [4]; [9]) was 6/19. For the same compound, the SOST expression (Ocy454 cells [4]; osteocytes lacking SIK2 and SIK3, 0.5 μM, 4 hours) was “did not decrease HDAC4 S246 phosphorylation or cause SOST suppression”.
